The record followed here is patent publication US11116760B2 (Gilead Sciences, Inc., priority 2018, dated 2021).

Sequence of α4β7 integrin (P13612 34-1032): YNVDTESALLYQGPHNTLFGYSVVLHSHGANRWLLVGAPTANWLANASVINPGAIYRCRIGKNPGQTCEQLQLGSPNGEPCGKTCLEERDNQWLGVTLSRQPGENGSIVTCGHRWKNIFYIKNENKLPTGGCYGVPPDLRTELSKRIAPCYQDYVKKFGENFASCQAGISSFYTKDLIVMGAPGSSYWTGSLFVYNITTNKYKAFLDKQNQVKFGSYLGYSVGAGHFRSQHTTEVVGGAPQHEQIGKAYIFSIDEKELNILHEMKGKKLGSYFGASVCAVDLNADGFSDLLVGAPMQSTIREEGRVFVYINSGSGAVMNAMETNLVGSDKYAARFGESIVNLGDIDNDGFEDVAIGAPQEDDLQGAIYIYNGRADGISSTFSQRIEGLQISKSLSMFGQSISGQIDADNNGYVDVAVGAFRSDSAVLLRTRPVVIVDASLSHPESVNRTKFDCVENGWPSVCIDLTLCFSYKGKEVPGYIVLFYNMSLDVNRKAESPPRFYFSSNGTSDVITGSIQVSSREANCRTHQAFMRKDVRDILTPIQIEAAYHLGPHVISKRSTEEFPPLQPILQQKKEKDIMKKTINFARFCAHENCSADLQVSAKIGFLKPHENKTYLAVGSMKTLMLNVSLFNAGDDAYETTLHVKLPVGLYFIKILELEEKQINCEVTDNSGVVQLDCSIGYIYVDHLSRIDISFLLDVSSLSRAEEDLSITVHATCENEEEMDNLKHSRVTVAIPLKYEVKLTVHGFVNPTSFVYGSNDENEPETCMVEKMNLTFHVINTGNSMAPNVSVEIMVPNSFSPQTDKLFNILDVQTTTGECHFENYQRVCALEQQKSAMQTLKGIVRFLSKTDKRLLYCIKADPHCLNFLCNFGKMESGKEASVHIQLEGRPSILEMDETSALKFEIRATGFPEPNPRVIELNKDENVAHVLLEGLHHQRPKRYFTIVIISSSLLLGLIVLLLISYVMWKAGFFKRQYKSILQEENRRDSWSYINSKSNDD
Sequence of α4β7 integrin (P26010 20-798): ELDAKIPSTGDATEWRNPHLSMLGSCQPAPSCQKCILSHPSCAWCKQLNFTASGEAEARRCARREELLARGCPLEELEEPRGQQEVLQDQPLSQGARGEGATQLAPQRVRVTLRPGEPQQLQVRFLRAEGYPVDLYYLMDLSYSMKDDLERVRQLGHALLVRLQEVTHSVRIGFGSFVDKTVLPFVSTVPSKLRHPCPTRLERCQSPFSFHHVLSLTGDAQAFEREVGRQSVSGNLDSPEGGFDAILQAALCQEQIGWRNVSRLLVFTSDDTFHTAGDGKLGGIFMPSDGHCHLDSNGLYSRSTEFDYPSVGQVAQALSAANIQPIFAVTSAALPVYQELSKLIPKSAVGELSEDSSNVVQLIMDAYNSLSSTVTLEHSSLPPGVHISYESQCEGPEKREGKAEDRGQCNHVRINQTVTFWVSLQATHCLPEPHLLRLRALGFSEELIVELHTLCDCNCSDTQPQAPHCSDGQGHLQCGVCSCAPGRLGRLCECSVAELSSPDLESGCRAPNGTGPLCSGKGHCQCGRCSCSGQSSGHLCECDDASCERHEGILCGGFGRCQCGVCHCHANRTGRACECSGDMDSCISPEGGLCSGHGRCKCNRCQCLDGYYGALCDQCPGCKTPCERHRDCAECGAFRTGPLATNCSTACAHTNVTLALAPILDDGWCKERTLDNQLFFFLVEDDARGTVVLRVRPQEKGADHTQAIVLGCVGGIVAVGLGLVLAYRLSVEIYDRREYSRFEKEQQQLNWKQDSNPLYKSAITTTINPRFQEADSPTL

One assay addresses α4β7 integrin (Homo sapiens (Human), UniProt P13612+P26010). As to the kind of experiment: α4β7 Integrin Cell Capture Assay. The format is cell-based. The following applies: RPMI8866 cells captured on MadCAM-1 extracellular domain-coated plate.
The term EC50 denotes the midpoint of the concentration-response curve. Low readings indicate higher potency in that assay, high ones lower potency in that assay. `Cc1cc(N2CCOC[C@@H]2C(F)(F)F)cc(F)c1C(=O)N[C@@H](Cc1ccc(-n2c(=O)[nH]c3cnccc3c2=O)c2ncccc12)C(=O)O` [Example 421]: a half-maximal effect (EC50) was put at 0.191 nM. As to `Cn1c(=O)c(-c2ccc(C[C@H](NC(=O)c3c(F)cc(N4CCOC[C@@H]4C(F)(F)F)cc3F)C(=O)O)c3cccnc23)nc2ccccc21` [Example 484], the 50% effective concentration (EC50) amounted to 0.143 nM.

The compound `Cc1nc2c(s1)c(=O)n(-c1ccc(C[C@H](NC(=O)c3c(C)cc(N4CCOC[C@@H]4C(F)(F)F)cc3F)C(=O)O)c3cccnc13)c(=O)n2C` [Example 410] gave an EC50 of 0.054 nM.

In turn, `Cn1c(=O)n(-c2ccc(C[C@H](NC(=O)c3c(F)cc(N4CCOC[C@@H]4C(F)(F)F)cc3F)C(=O)O)c3cccnc23)c(=O)c2ccc(F)cc21` [Example 423] showed an EC50 of 0.08 nM. Consider `Cn1c(=O)n(-c2ccc(C[C@H](NC(=O)c3c(F)cc(N4CCOC[C@@H]4C(F)(F)F)cc3F)C(=O)O)c3cccnc23)c(=O)c2ccncc21` [Example 474], for which the response was half-maximal at 0.112 nM (EC50). Compound `Cc1cc(N2CCOC3(CC3)C2)cc(F)c1C(=O)N[C@@H](Cc1ccc(-c2c(C(F)(F)F)cc(C)n(C)c2=O)c2ncccc12)C(=O)O` [Example 466] returned a concentration for a half-maximal effect (EC50) of 0.581 nM. The same measure, in the same setting: as for `Cc1cc(-c2nccn2CC(F)(F)F)cc(F)c1C(=O)N[C@@H](Cc1ccc(-n2c(=O)c3ccncc3n(C)c2=O)c2ncccc12)C(=O)O` [Example 419], the figure is 0.369 nM; as for `Cc1cc(N2CCOC[C@@H]2C(F)(F)F)cc(F)c1C(=O)N[C@@H](Cc1ccc(-n2c(=O)c3cncnc3n(C)c2=O)c2ncccc12)C(=O)O` [Example 406, (S)-2-(2-fluoro-6-methyl-4-((R)-3-(trifluoromethyl)morpholino)benzamido)-3-(8-(1-methyl-2,4-dioxo-1,4-dihydropyrimido[4,5-d]pyrimidin-3(2H)-yl)quinolin-5-yl)propanoic acid], 0.08 nM. The same measure, in the same setting: as for `Cc1cc(N2CCOC[C@@H]2C(F)(F)F)cc(F)c1C(=O)N[C@@H](Cc1ccc(-n2c(=O)c3c(n(C)c2=O)COCC3)c2ncccc12)C(=O)O` [Example 411], the figure is 0.06 nM.

Still in this assay, the particulars now being: Table 1; capture of α4β7 expressing RPM18866 cells on MadCAM-1 extracellular domain-coated plate.
As for `Cc1cc(C(F)(F)F)c(-c2ccc(C[C@H](NC(=O)c3c(F)cc(N4CCOC[C@@H]4C(F)(F)F)cc3F)C(=O)O)c3cccnc23)nc1C` [Example 94, (S)-2-(2,6-difluoro-4-((R)-3-(trifluoromethyl)morpholino)benzamido)-3-(8-(5,6-dimethyl-3-(trifluoromethyl)pyridin-2-yl)quinolin-5-yl)propanoic acid], the half-maximal effective concentration (EC50) was 0.5 nM. Consider `O=C(N[C@@H](Cc1ccc(-c2ncccn2)c2ncccc12)C(=O)O)c1c(F)cc(NS(=O)(=O)c2ccc(-c3ccnc(F)c3)cc2)cc1F` [Example 58, (S)-2-(2,6-difluoro-4-((4-(2-fluoropyridin-4-yl)phenyl)sulfonamido)benzamido)-3-(8-(pyrimidin-2-yl)quinolin-5-yl)propanoic acid], for which the EC50 was 2 nM.

Compound `CC[C@@H](N(C)c1cc(F)c(C(=O)N[C@@H](Cc2ccc(-c3c(C(F)(F)F)cc(C)n(C)c3=O)c3ncccc23)C(=O)O)c(F)c1)C(F)(F)F` [Example 135, (S)-2-(2,6-difluoro-4-(methyl((R)-1,1,1-trifluorobutan-2-yl)amino)benzamido)-3-(8-(1,6-dimethyl-2-oxo-4-(trifluoromethyl)-1,2-dihydropyridin-3-yl)quinolin-5-yl)propanoic acid] registered a concentration giving a half-maximal response (EC50) of 0.4 nM. As to `CS(=O)(=O)Cc1cc(F)c(C(=O)N[C@@H](Cc2ccc(-c3ccc(C#N)cc3Cl)c3ncccc23)C(=O)O)c(F)c1` [Example 48, (S)-3-(8-(2-chloro-4-cyanophenyl)quinolin-5-yl)-2-(2,6-difluoro-4-((methylsulfonyl)methyl)benzamido)propanoic acid], a half-maximal response (EC50) required 52.1 nM. The same measure, in the same setting: as for `CCOCc1cc(OC)c(-c2c(F)cc(C[C@H](NC(=O)c3c(F)cccc3F)C(=O)O)c3cccnc23)c(OC)c1` [Example 40, (S)-2-(2,6-difluorobenzamido)-3-(8-(4-(ethoxymethyl)-2,6-dimethoxyphenyl)-7-fluoroquinolin-5-yl)propanoic acid], the figure is 8.6 nM; as for `Cc1cc(C(F)(F)F)c(-c2ccc(C[C@H](NC(=O)c3c(F)cc(N4C[C@@H](C)OC[C@@H]4C(F)(F)F)cc3F)C(=O)O)c3cccnc23)c(=O)n1C` [Example 136, (S)-2-(2,6-difluoro-4-((2R,5R)-2-methyl-5-(trifluoromethyl)morpholino)benzamido)-3-(8-(1,6-dimethyl-2-oxo-4-(trifluoromethyl)-1,2-dihydropyridin-3-yl)quinolin-5-yl)propanoic acid], 0.2 nM; as for `O=C(N[C@@H](Cc1ccc(-c2ncc3ccccc3c2C(F)(F)F)c2ncccc12)C(=O)O)c1c(F)cccc1F` [Example 71, (S)-2-(2,6-difluorobenzamido)-3-(8-(4-(trifluoromethyl)isoquinolin-3-yl)quinolin-5-yl)propanoic acid], 9.5 nM. As for `N#Cc1ccc(-c2ccc(C[C@H](NC(=O)c3c(F)cc(C(=O)Nc4ccccc4)cc3F)C(=O)O)c3cccnc23)c(Cl)c1` [Example 26, (S)-3-(8-(2-chloro-4-cyanophenyl)quinolin-5-yl)-2-(2,6-difluoro-4-(phenylcarbamoyl)benzamido)propanoic acid], the 50% effective concentration (EC50) stood at 32.8 nM. Still for that read-out and setting: as for `Cc1cc(N2CCC2)c(-c2ccc(C[C@H](NC(=O)c3c(F)cc(N4CCOC[C@@H]4C(F)(F)F)cc3F)C(=O)O)c3cccnc23)c(=O)n1C` [Example 103, (S)-3-(8-(4-(azetidin-1-yl)-1,6-dimethyl-2-oxo-1,2-dihydropyridin-3-yl)quinolin-5-yl)-2-(2,6-difluoro-4-((R)-3-(trifluoromethyl)morpholino)benzamido)propanoic acid], the figure is 0.7 nM.

On to `Cc1cc(C(F)(F)F)c(-c2ccc(C[C@H](NC(=O)c3c(F)cc(N4CCOC[C@@H]4CC(F)(F)F)cc3F)C(=O)O)c3cccnc23)c(=O)n1C` [Example 131, (S)-2-(2,6-difluoro-4-((S)-3-(2,2,2-trifluoroethyl)morpholino)benzamido)-3-(8-(1,6-dimethyl-2-oxo-4-(trifluoromethyl)-1,2-dihydropyridin-3-yl)quinolin-5-yl)propanoic acid], for which it took 0.8 nM to reach a half-maximal effect (EC50).

For `Cc1cc(C)c(-c2ccc(C[C@H](NC(=O)c3c(F)cccc3F)C(=O)O)c3cccnc23)nc1C` [Example 11, (S)-2-(2,6-difluorobenzamido)-3-(8-(3,5,6-trimethylpyridin-2-yl)quinolin-5-yl)propanoic acid], it took 22.9 nM to reach a half-maximal effect (EC50). Still for that read-out and setting: in the case of `O=C(N[C@@H](Cc1ccc(-c2ccncn2)c2ncccc12)C(=O)O)c1c(F)cc(NS(=O)(=O)c2ccc(-c3ccnc(F)c3)cc2)cc1F` [Example 56, (S)-2-(2,6-difluoro-4-((4-(2-fluoropyridin-4-yl)phenyl)sulfonamido)benzamido)-3-(8-(pyrimidin-4-yl)quinolin-5-yl)propanoic acid] it was 9.1 nM.

The assay is the same for the next values; noted with them: Table 2; capture of α4β7 expressing RPM18866 cells on MadCAM-1 extracellular domain-coated plate.
Compound `CC[C@@H](Nc1cc(F)c(C(=O)N[C@@H](Cc2ccc(-c3c(C)c(Cl)cn(C)c3=O)c3ncccc23)C(=O)O)c(F)c1)C(F)(F)F` [Example 200] returned an EC50 of 1.5 nM. As for `Cc1cc(C)n(C)c(=O)c1-c1ccc(C[C@H](NC(=O)c2c(F)cc(N[C@H](C3CC3)C(F)(F)F)cc2F)C(=O)O)c2cccnc12` [Example 342], the response was half-maximal at 0.7 nM (EC50). In turn, `C[C@@H](Nc1cc(F)c(C(=O)N[C@@H](Cc2ccc(-c3c(Cl)cc(C#N)cc3Cl)c3ncccc23)C(=O)O)c(F)c1)C(F)(F)F` [Example 288] registered an EC50 of 5.8 nM.

Take `COCCNC(=O)c1cc(F)c(C(=O)N[C@@H](Cc2ccc(-c3ccc(C#N)cc3Cl)c3ncccc23)C(=O)O)c(F)c1` [Example 178]: the concentration giving a half-maximal response (EC50) was 37.1 nM. On to `Cc1cc(C(F)(F)F)c(-c2ccc(C[C@H](NC(=O)c3c(F)cc(N4C[C@H](C)OC[C@@H]4C)cc3F)C(=O)O)c3cccnc23)c(=O)n1C` [Example 204], for which it took 1.7 nM to reach a half-maximal effect (EC50). The same measure, in the same setting: in the case of `C[C@@H](Nc1cc(F)c(C(=O)N[C@@H](Cc2ccc(-c3cn(C)c(=O)n(C)c3=O)c3ncccc23)C(=O)O)c(F)c1)C(F)(F)F` [Example 211] it was 1.9 nM; in that of `Cc1cc(N2CCOC[C@@H]2C(F)(F)F)cc(Cl)c1C(=O)N[C@@H](Cc1ccc(-c2c(C(F)(F)F)cc(C)n(C)c2=O)c2ncccc12)C(=O)O` [Example 160], 0.3 nM; in that of `CC[C@@H](Nc1cc(F)c(C(=O)N[C@@H](Cc2ccc(-c3c(C(F)(F)F)cc(C4CC4)n(C)c3=O)c3ncccc23)C(=O)O)c(F)c1)C(F)(F)F` [Example 163], 0.4 nM. The same measure, in the same setting: in the case of `CCOCc1cc(OC)c(-c2ccc(C[C@H](NC(=O)c3c(F)cc(CS(=O)(=O)c4ccccc4)cc3F)C(=O)O)c3cccnc23)c(OC)c1` [Example 224] it was 2.2 nM. As for `Cc1c(N(C)C)cc(-c2ccc(C[C@H](NC(=O)c3c(F)cc(N4CCOC[C@@H]4C(F)(F)F)cc3F)C(=O)O)c3cccnc23)c(=O)n1C` [Example 259], the EC50 was found to be 3.7 nM. Regarding `Cc1cc(C(F)(F)F)c(-c2ccc(C[C@H](NC(=O)c3c(F)cc(N4C[C@H](C)OC[C@H]4C)cc3F)C(=O)O)c3cccnc23)c(=O)n1C` [Example 243], the response was half-maximal at 2.9 nM (EC50). The compound `Cc1cc(C(F)(F)F)c(-c2ccc(C[C@H](NC(=O)c3c(F)cc(N4CCOC[C@H]4CC(F)(F)F)cc3F)C(=O)O)c3cccnc23)c(=O)n1C` [Example 254] displayed a concentration for a half-maximal effect (EC50) of 3.2 nM. The same measure, in the same setting: as for `O=C(N[C@@H](Cc1ccc(-c2c(C(F)(F)F)cc3n(c2=O)CCC3)c2ncccc12)C(=O)O)c1c(Cl)cccc1Cl` [Example 308], the figure is 11.9 nM. Same read-out and setting: in the case of `Cc1c(N)cc(-c2ccc(C[C@H](NC(=O)c3c(F)cc(N4CCOC[C@@H]4C(F)(F)F)cc3F)C(=O)O)c3cccnc23)c(=O)n1C` [Example 273] it was 4.7 nM; in that of `C[C@H](NC(=O)c1cc(F)c(C(=O)N[C@@H](Cc2ccc(-c3ccc(C#N)cc3Cl)c3ncccc23)C(=O)O)c(F)c1)C(F)(F)F` [Example 195], 62.3 nM; in that of `Cc1nc(-c2ccc(C[C@H](NC(=O)c3c(F)cc(N4CCOC[C@H]4C(F)(F)F)cc3F)C(=O)O)c3cccnc23)c(=O)n(C)c1C` [Example 255], 3.4 nM.
